Reference: article PMC5011342, “A high throughput drug screening assay to identify compounds that promote oligodendrocyte differentiation using acutely dissociated and purified oligodendrocyte precursor cells” (BMC Research Notes, 2016)
Read-outs that look alike come from different tables or passages of the source.

Legend:
expanded OPCs = experiment: cells; settings: for viability at 0.1 µM / viability at 1 µM / viability at 10 µM: Rattus norvegicus, 72 h
Method: Having established a consistent assay for measuring OL differentiation in vitro, the next step was to utilize this assay to assess the ability of a wide array of compounds to promote OL differentiation. Prior to library screening, we first established the maximum non-toxic dose of each compound in the library. […] Therefore, we added each compound in the NIH clinical collection (NCC) library to OPCs at 10, 1, and 0.1 µM concentrations. Three days later, we assessed viability of the treated cells by measuring AlamarBlue fluorescence, a measure of cell viability (see “Methods” section). […] Appropriately, we established three sets of screening concentrations for library compounds: non-toxic compounds were tested at 10 and 2 µM, slightly toxic compounds (only toxic at 10 µM) were tested at 2 and 0.4 µM, and very toxic compounds were tested at 0.4 and 0.08 µM.
OPCs were expanded in vitro by seeding into PDL-coated tissue culture flasks at 1000–2000 cells/cm^2 in differentiation media supplemented with 10 ng/ml PDGF-AA. Proliferating OPCs were fed every 2–3 days and supplemented with 2–3× concentration of PDGF as needed to prevent OPC differentiation. After 6–7 days of proliferation, OPCs were harvested by trypsinization, plated into PDL-coated 96-well Falcon plates and centrifuged at 200×g to facilitate cell attachment, survival, and even distribution of cells. Expanded OPCs were seeded in differentiation media at 10,000 cells/well and incubated for 2 h at 37 °C, 10 % CO2 prior to addition of compounds. The NCC library was diluted and added to cells at 10, 1, and 0.1 µM; each concentration was tested in quadruplicate. As a positive control for the induction of toxicity, 5 ng/ml tunicamycin was added to 8 wells in each plate. Three days later, a 1:10 dilution of alamarBlue® (AB) was added to each well and cells were incubated 4 h at 37 °C, 10 % CO2. AB fluorescence was measured using a PerkinElmer Victor II fluorescence microplate reader (PerkinElmer, Waltham, MA) with 560 nm excitation/590 nm emission filters. For library screening, the highest concentration of each compound was adjusted to a minimally toxic concentration based on this toxicity data. Compounds were additionally tested at a second concentration that was 1/5th of the top concentration. The final concentration of DMSO in each well was 0.1 %.

[1] = tested on: acutely dissociated and purified rat OPCs; experiment: Acute OL differentiation assay (MBP expression/cell, immunofluorescent image quantification); assay type: cell-based; settings: sheet "All OLga data"; for activation at 2 µM / activation at 10 µM: Rattus norvegicus
Method: In order to identify compounds with the potential to promote OL differentiation in vivo and thereby enhance remyelination, we first wanted to establish an in vitro assay system that would closely mimic conditions in vivo. To do this, we started by using OPCs acutely isolated from postnatal day 6–7 (P6–7) rat brains by O4 immunopanning. […] OPCs were plated directly onto a biological substrate (PDL/laminin) in 96-well view plates at moderate density to allow for sufficient room to expand processes during differentiation. We plated cells in serum-free medium lacking OPC mitogens (no PDGF or FGF) to allow a basal level of OL differentiation to commence, and as a positive control added thyroid hormone (T3, 40 ng/ml) to accelerate differentiation (Fig. 1, flow scheme).
Fig. 1 Flow scheme of the acute OL differentiation assay. a Purified oligodendrocyte precursor cells (OPCs) were cultured from P7 rat cortex and plated into PDL/laminin pre-coated 96-well plates. b One hour later test compounds were added. c OPC cultures with compound were maintained in culture for an additional 4 days. d On the 5th day with compound, cells were fixed and immunostained with anti-MBP antibodies and DAPI. e Images were acquired with automated fluorescence microscopy and scored phenotypically for OL differentiation (see “Methods” section)
To quantify the extent of OL differentiation occurring in treatment conditions, we measured the overall amount of MBP expression/cell (see “Methods” section). Figure 2a depicts the mask created over MBP staining under which the MBP expression was quantified. […]
All animal work was carried out in strict accordance with the recommendations in the Guide for the Care and Use of Laboratory Animals of the National Institutes of Health. The protocol was approved by the Institutional Use and Care and Use Committee at the Molecular Medicine Research Institute (Sunnyvale, CA). Animals used for OPC isolation in these studies were euthanized by decapitation. OPCs from brains of P6-P7 Sprague–Dawley rat pups (Charles River, Wilmington, MA, USA) were enriched by immunopanning as previously described (Dugas et al. 2006). Briefly, single cell suspensions were obtained from papain-digested neonatal brains and depleted of mature glial cells by successive panning with RAN-2- and GalC-coated plates, followed by enrichment for OPCs using O4-coated plates. OPCs were plated in differentiation media (DMEM, 100 U/ml Penicillin/100 µg/ml streptomycin, 2 mM L-glutamine, 1 mM Na pyruvate, 5 µg/ml insulin, 5 µg/ml N-acetyl-L-cysteine, 1× trace elements B,10 ng/ml d-Biotin, 100 µg/ml BSA, 100 µg/ml apo-transferrin, 16 µg/ml putrescine, 60 ng/ml progesterone, 40 ng/ml sodium selenite 5 ng/ml forskolin, 10 ng/ml CNTF, 1 ng/ml NT-3).
Acutely enriched OPCs were plated in differentiation media at 5000 cells/well into PDL/laminin coated 96-well view plates and centrifuged at 200×g to facilitate cell attachment, survival, and even distribution of OPCs. OPCs were pre-incubated for 1–2 h at 37 °C in 10 % CO2, followed by the addition of test compounds in quadruplicate. Controls were added in eight replicate wells, negative control = 0.1 % DMSO; positive control = 40 ng/ml T3. The day of OPC plating was considered DIV0. On DIV4, cells were fixed, immunostained for myelin basic protein (MBP) expression, imaged and quantified as described below.

[2] = alamarBlue viability, NCC library compound at 0.1 µM, sheet "All Tox data"
[3] = alamarBlue viability, NCC library compound at 1 µM, sheet "All Tox data"
[4] = alamarBlue viability, NCC library compound at 10 µM, sheet "All Tox data"
[5] = read-out: 0.1 µM (% DMSO), alamarBlue viability, NCC library compound at 0.1 µM, sheet "All Tox data"
[6] = read-out: 1 µM (% DMSO), alamarBlue viability, NCC library compound at 1 µM, sheet "All Tox data"
[7] = read-out: 10 µM (% DMSO), alamarBlue viability, NCC library compound at 10 µM, sheet "All Tox data"
[8] = 2 uM test compound, relative to quetiapine, read-out: OL differentiation, 2 uM (% Quet)
[9] = 10 uM test compound, relative to quetiapine, read-out: OL differentiation, 10 uM (% Quet)
[10] = test compound at 2 uM, NCC library screen, relative to quetiapine, read-out: 2 uM (% Quet)
[11] = test compound at 10 uM, NCC library screen, relative to quetiapine, read-out: 10 uM (% Quet)
[12] = alamarBlue viability of expanded OPCs, compound at 0.1 µM, relative to DMSO control
[13] = alamarBlue viability of expanded OPCs, compound at 1 µM, relative to DMSO control
[14] = alamarBlue viability of expanded OPCs, compound at 10 µM, relative to DMSO control

CCCCCCCCCOc1ccc2[nH]cc(CCN)c2c1 [5-Nonyloxytryptamine]
0.1 µM (% DMSO) (expanded OPCs; [2]): 59.8 % DMSO | 1 µM (% DMSO) (expanded OPCs; [3]): 9.3 % DMSO | 10 µM (% DMSO) (expanded OPCs; [4]): 8.5 % DMSO | 0.08 uM (% Quet) ([1]; test compound at 0.08 uM, NCC library screen, relative to quetiapine): -24.6 % Quet | 0.4 uM (% Quet) ([1]; test compound at 0.4 uM, NCC library screen, relative to quetiapine): -339.9 % Quet

Fc1cncnc1 [5-fluoropyrimidine]
viability at 0.1 µM (expanded OPCs; [5]): 89.9% | viability at 1 µM (expanded OPCs; [6]): 85.6% | viability at 10 µM (expanded OPCs; [7]): 80.4% | activation at 2 µM [1, 8]: -16.3% | activation at 10 µM [1, 9]: -9.2%

Nc1ccc2cn[nH]c2c1 [6-Aminoindazole]
0.1 µM (% DMSO) (expanded OPCs; [2]): 85.3 % DMSO | 1 µM (% DMSO) (expanded OPCs; [3]): 87.5 % DMSO | 10 µM (% DMSO) (expanded OPCs; [4]): 73.6 % DMSO | 2 uM (% Quet) ([1]; test compound at 2 uM, NCC library screen, relative to quetiapine): -23.3 % Quet | 10 uM (% Quet) ([1]; test compound at 10 uM, NCC library screen, relative to quetiapine): -40.9 % Quet

O=[N+]([O-])c1cccc2cn[nH]c12 [7-Nitroindazole]
viability at 0.1 µM (expanded OPCs; [5]): 84.2% | viability at 1 µM (expanded OPCs; [6]): 88.9% | viability at 10 µM (expanded OPCs; [7]): 89.1% | activation at 2 µM [1, 10]: -7.1% | activation at 10 µM [1, 11]: 5.7%

CCCCC/C=C\C/C=C\C/C=C\C/C=C\CCCC(=O)Nc1ccc(O)cc1 [AM 404]
0.1 µM (% DMSO) (expanded OPCs; alamarBlue viability of expanded OPCs, compound at 0.1 µM, sheet All Tox data): 87.9 % DMSO | 1 µM (% DMSO) (expanded OPCs; alamarBlue viability of expanded OPCs, compound at 1 µM, sheet All Tox data): 33.1 % DMSO | 10 µM (% DMSO) (expanded OPCs; alamarBlue viability of expanded OPCs, compound at 10 µM, sheet All Tox data): 11.4 % DMSO | OL differentiation, 0.08 uM (% Quet) ([1]; 0.08 uM test compound, relative to quetiapine): -17.8 % Quet | OL differentiation, 0.4 uM (% Quet) ([1]; 0.4 uM test compound, relative to quetiapine): -184.2 % Quet

C[C@H]1O[C@H](O[C@H]2[C@H](O)[C@@H](O)[C@@H](O[C@H]3[C@H](O)[C@@H](O)C(O)O[C@@H]3CO)O[C@@H]2CO)[C@H](O)[C@@H](O)[C@@H]1N[C@H]1C=C(CO)[C@@H](O)[C@H](O)[C@H]1O (stereo partly shown) [Acarbose]
viability at 0.1 µM (expanded OPCs; read-out: 0.1 µM (% DMSO), alamarBlue viability of expanded OPCs, compound at 0.1 µM, sheet All Tox data): 88.8% | viability at 1 µM (expanded OPCs; read-out: 1 µM (% DMSO), alamarBlue viability of expanded OPCs, compound at 1 µM, sheet All Tox data): 92% | viability at 10 µM (expanded OPCs; read-out: 10 µM (% DMSO), alamarBlue viability of expanded OPCs, compound at 10 µM, sheet All Tox data): 93.2% | activation at 2 µM [1, 8]: 17.5% | activation at 10 µM [1, 9]: -6.6%

CCCC(=O)Nc1ccc(OCC(O)CNC(C)C)c(C(C)=O)c1 (stereo not shown) [Acebutolol]
0.1 µM (% DMSO) (expanded OPCs; [12]): 94.3 % DMSO | 1 µM (% DMSO) (expanded OPCs; [13]): 111.2 % DMSO | 10 µM (% DMSO) (expanded OPCs; [14]): 112.7 % DMSO | activation at 2 µM ([1]; test compound at 2 uM, MBP expression relative to quetiapine, NCC library screen, read-out: 2 uM (% Quet)): 7.8% | activation at 10 µM ([1]; test compound at 10 uM, MBP expression relative to quetiapine, NCC library screen, read-out: 10 uM (% Quet)): -5.4%

CC(=O)Nc1nnc(S(N)(=O)=O)s1 [Acetazolamide]
0.1 µM (% DMSO) (expanded OPCs; [12]): 89.2 % DMSO | 1 µM (% DMSO) (expanded OPCs; [13]): 90.6 % DMSO | 10 µM (% DMSO) (expanded OPCs; [14]): 87.5 % DMSO | activation at 2 µM [1, 10]: -8.7% | activation at 10 µM [1, 11]: -43.8%
